The values that follow come from PubChem BioAssay AID1259411 (Chemical Carcinogenesis Research Information System (CCRIS), 2018).

The test system of the data set is rodent carcinogenicity bioassays, tumor incidence. The data set can be described thus: CCRIS carcinogenicity studies. An outline of the steps: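 Archive of carcinogenicity, mutagenicity, tumor promotion and tumor inhibition results drawn from journals, NCI reports and other sources, expert-reviewed; covers 1985-2011 and is no longer updated.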

Each structure is given as a SMILES string. The source made the active and inactive calls. The rule behind the calls is not given here.

As to `O=C(O)CC[N+](=O)[O-]`, the carcinogen call by setting is: (Species: MOUSE, Strain/Sex: B6C3F1/FEMALE, Route: GAVAGE, Dose: 0, 0.375, 0.75 MG/ANIMAL/DAY FOR 104 WK (STUDY DURATION: 104-105 WK), Dose: 0, 0.375, 0.75 MG/ANIMAL/DAY FOR 104 WK (STUDY DURATION: 104-105 WK)) “inactive; negative”; (Species: MOUSE, Strain/Sex: B6C3F1/MALE, Route: GAVAGE, Dose: 0, 0.375, 0.75 MG/ANIMAL/DAY FOR 104 WK (STUDY DURATION: 104-105 WK), Dose: 0, 0.375, 0.75 MG/ANIMAL/DAY FOR 104 WK (STUDY DURATION: 104-105 WK)) “inactive; negative”; (Species: RAT, Strain/Sex: F344/FEMALE, Route: GAVAGE, Dose: 0, 0.6, 1.2 MG/ANIMAL/DAY FOR 110 WK (STUDY DURATION: 111 WK), Dose: 0, 0.6, 1.2 MG/ANIMAL/DAY FOR 110 WK (STUDY DURATION: 111 WK)) “inactive; negative”; (Species: RAT, Strain/Sex: F344/MALE, Route: GAVAGE, Dose: 0, 0.425, 0.85 MG/ANIMAL/DAY FOR 110 WK (STUDY DURATION: 111 WK), Dose: 0, 0.425, 0.85 MG/ANIMAL/DAY FOR 110 WK (STUDY DURATION: 111 WK), Tumor Site: Type of Lesion: LIVER: HEPATOCELLULAR NEOPLASM, PANCREAS: ISLET CELL ADENOMA) “equivocal”.

As for `CN(C)c1ccc(C(=C2C=CC(=[N+](C)C)C=C2)c2c(O)c(S(=O)(=O)[O-])cc3cc(S(=O)(=O)O)ccc23)cc1`, the carcinogen call (Species: MOUSE, Strain/Sex: CD-1/FEMALE, Route: ORAL, Dose: 0, 0.033, 0.33, 0.66% IN DIET TO PUPS OF PARENTS GIVEN THE SAME DIETARY DOSES FOR 9 WK PRIOR TO MATING. FROM 2 TO 5 WK O, Dose: 0, 0.033, 0.33, 0.66% IN DIET TO PUPS OF PARENTS GIVEN THE SAME DIETARY DOSES FOR 9 WK PRIOR TO MATING. FROM 2 TO 5 WK O) was “inactive; negative” and the carcinogen call (Species: MOUSE, Strain/Sex: CD-1/MALE, Route: ORAL, Dose: 0, 0.033, 0.33, 0.66% IN DIET TO PUPS OF PARENTS GIVEN THE SAME DIETARY DOSES FOR 9 WK PRIOR TO MATING. FROM 2 TO 5 WK O, Dose: 0, 0.033, 0.33, 0.66% IN DIET TO PUPS OF PARENTS GIVEN THE SAME DIETARY DOSES FOR 9 WK PRIOR TO MATING. FROM 2 TO 5 WK O) was “inactive; negative”.

As to `C1CC[CH]([Sn]([CH]2CCCCC2)[CH]2CCCCC2)CC1`, the carcinogen call (Species: Mouse, Strain/Sex: B6C3F1/Female (50/group), Route: Oral, Dose: 0, 1, 3, 6 mg/kg of 98% pure cyhexatin in diet for 2 years, Dose: 0, 1, 3, 6 mg/kg of 98% pure cyhexatin in diet for 2 years) was “inactive; negative, (dpr evaluator indicated inadequate justification of dose and too narr”; the carcinogen call (Species: Mouse, Strain/Sex: B6C3F1/Male (50/group), Route: Oral, Dose: 0, 1, 3, 6 mg/kg of 98% pure cyhexatin in diet for 2 years, Dose: 0, 1, 3, 6 mg/kg of 98% pure cyhexatin in diet for 2 years) is “inactive; negative, (dpr evaluator indicated inadequate justification of dose and too narr”.

As to `O[C@@H]1C=CC=C[C@H]1O`, the carcinogen call is “inactive; negative” (Species: MOUSE, Strain/Sex: SWISS/FEMALE, Route: INTRAPERITONEAL, Dose: 0, 10, 50 UMOL ADMINISTERED AS 3 UNEQUAL DOSES (1/7, 2/7, AND 4/7 OF THE TOTAL DOSE) OVER A 2-WK PERIOD (STUDY DURATION:, Dose: 0, 10, 50 UMOL ADMINISTERED AS 3 UNEQUAL DOSES (1/7, 2/7, AND 4/7 OF THE TOTAL DOSE) OVER A 2-WK PERIOD (STUDY DURATION:) and “inactive; negative” (Species: MOUSE, Strain/Sex: SWISS/MALE, Route: INTRAPERITONEAL, Dose: 0, 10, 50 UMOL ADMINISTERED AS 3 UNEQUAL DOSES (1/7, 2/7, AND 4/7 OF THE TOTAL DOSE) OVER A 2-WK PERIOD (STUDY DURATION:, Dose: 0, 10, 50 UMOL ADMINISTERED AS 3 UNEQUAL DOSES (1/7, 2/7, AND 4/7 OF THE TOTAL DOSE) OVER A 2-WK PERIOD (STUDY DURATION:).

On to `Cc1cc(-c2ccccc2C)ccc1NO`, for which the carcinogen call is “active; positive” (Species: RAT, Strain/Sex: ACI/SEG/MALE, Route: INTRAPERITONEAL, Dose: 0, 50 UMOL/KG BW 2X/WK FOR 10 WK BEGINNING AT 3 D OF AGE (STUDY DURATION: 68 WK), Tumor Site: Type of Lesion: COLON: CARCINOMA) and “active; positive” (Species: RAT, Strain/Sex: F344/MALE, Route: INTRAPERITONEAL, Dose: 0, 5, 10, 20 MG/KG 1/2 WK FOR 20 WK (STUDY DURATION: 60 WK), Dose: 0, 5, 10, 20 MG/KG 1/2 WK FOR 20 WK (STUDY DURATION: 60 WK), Tumor Site: Type of Lesion: PROSTATE: CARCINOMA, PERITONEUM: TUMOR, COLON: TUMOR, Tumor Site: Type of Lesion: PROSTATE: CARCINOMA, PERITONEUM: TUMOR, COLON: TUMOR).

Take `OCc1c2ccccc2cc2c1ccc1ccccc12`: for the setting “Species: RAT, Strain/Sex: SPRAGUE-DAWLEY/FEMALE, Route: SUBCUTANEOUS, Dose: 0, 0.2 UMOL IN SESAME OIL:DMSO (9:1) 3/WK FOR 20 DOSES (STUDY DURATION: 52 WK), Tumor Site: Type of Lesion: INJECTION SITE: SARCOMA”, the carcinogen call was “active; positive”.

In the case of `CCNC(=O)[C@@H]1CCCN1C(=O)[C@H](CCCN=C(N)N)NC(=O)[C@H](CC(C)C)NC(=O)[C@@H](COC(C)(C)C)NC(=O)[C@H](Cc1ccc(O)cc1)NC(=O)[C@H](CO)NC(=O)[C@H](Cc1c[nH]c2ccccc12)NC(=O)[C@H](Cc1cnc[nH]1)NC(=O)[C@@H]1CCC(=O)N1`, the carcinogen call (Species: RAT, Strain/Sex: WISTAR/FEMALE, Route: SUBCUTANEOUS, Dose: 0, 0.0002, 0.0006, 0.0018 MG/KG 1/D FOR 24 MO (STUDY DURATION: 30 MO), Dose: 0, 0.0002, 0.0006, 0.0018 MG/KG 1/D FOR 24 MO (STUDY DURATION: 30 MO)) is “inactive; negative” and the carcinogen call (Species: RAT, Strain/Sex: WISTAR/MALE, Route: SUBCUTANEOUS, Dose: 0, 0.0002, 0.0006, 0.0018 MG/KG 1/D FOR 24 MO (STUDY DURATION: 30 MO), Dose: 0, 0.0002, 0.0006, 0.0018 MG/KG 1/D FOR 24 MO (STUDY DURATION: 30 MO)) was “inactive; negative”.

Take `COc1cccc2c1cc([N+](=O)[O-])c1c(C(=O)O)cc3c(c12)OCO3` (tested in a mixture with another compound): the carcinogen call was “active; positive” (Species: RAT, Strain/Sex: WISTAR/FEMALE, Route: GAVAGE, Dose: 0.1, 1.0, 10 MG/KG/D, 7 D/WK FOR 3 MO (LOW DOSE ALSO GIVEN FOR 6 OR 12 MO), Dose: 0.1, 1.0, 10 MG/KG/D, 7 D/WK FOR 3 MO (LOW DOSE ALSO GIVEN FOR 6 OR 12 MO), Tumor Site: Type of Lesion: FORESTOMACH: PAPILLOMA, CARCINOMA) and “active; positive” (Species: RAT, Strain/Sex: WISTAR/MALE, Route: GAVAGE, Dose: 0.1, 1.0, 10 MG/KG/D, 7 D/WK FOR 3 MO (LOW DOSE ALSO GIVEN FOR 6 OR 12 MO), Dose: 0.1, 1.0, 10 MG/KG/D, 7 D/WK FOR 3 MO (LOW DOSE ALSO GIVEN FOR 6 OR 12 MO), Tumor Site: Type of Lesion: FORESTOMACH: PAPILLOMA, CARCINOMA, URINARY BLADDER: PAPILLOMA, CARCINOMA, KIDNEY: CARCINOMA, Tumor Site: Type of Lesion: FORESTOMACH: PAPILLOMA, CARCINOMA, URINARY BLADDER: PAPILLOMA, CARCINOMA, KIDNEY: CARCINOMA).

On to `NC(Cc1ccc(N(CCCl)CCCl)cc1)C(=O)O` (stereo unspecified), for which the carcinogen call (Species: RAT, Strain/Sex: SWISS/FEMALE, Route: INTRAPERITONEAL, Dose: 10 MG/KG, Tumor Site: Type of Lesion: MAMMARY GLAND: FIBROADENOMA) was “active; positive”.

Turning to `Cc1ccc(N)cc1Cl`, the carcinogen call is “inactive; negative” (Species: MOUSE, Strain/Sex: B6C3F1/FEMALE, Route: ORAL, Dose: 0, 300, 600 PPM IN DIET, Dose: 0, 300, 600 PPM IN DIET); “inactive; negative” (Species: MOUSE, Strain/Sex: B6C3F1/MALE, Route: ORAL, Dose: 0, 600, 1200 PPM IN DIET, Dose: 0, 600, 1200 PPM IN DIET); “inactive; negative” (Species: RAT, Strain/Sex: F344/FEMALE, Route: ORAL, Dose: 0, 1635, 3269 PPM IN DIET, TWA, Dose: 0, 1635, 3269 PPM IN DIET, TWA); “inactive; negative” (Species: RAT, Strain/Sex: F344/MALE, Route: ORAL, Dose: 0, 1635, 3269 PPM IN DIET, TWA, Dose: 0, 1635, 3269 PPM IN DIET, TWA).

As for `O=C1C2(Cl)C3(Cl)C4(Cl)C(Cl)(Cl)C5(Cl)C3(Cl)C1(Cl)C5(Cl)C24Cl` (stereo unspecified), the carcinogen call is, setting by setting: (Species: MOUSE, Strain/Sex: B6C3F1/FEMALE, Route: ORAL, Dose: 20, 40 MG/KG IN DIET, TWA, Tumor Site: Type of Lesion: LIVER: HEPATOCELLULAR CARCINOMA) “active; positive”; (Species: MOUSE, Strain/Sex: B6C3F1/MALE, Route: ORAL, Dose: 20, 23 MG/KG IN DIET, TWA, Tumor Site: Type of Lesion: LIVER: HEPATOCELLULAR CARCINOMA) “active; positive”; (Species: RAT, Strain/Sex: OSBORNE-MENDEL/FEMALE, Route: ORAL, Dose: 18, 26 MG/KG IN DIET, TWA, Tumor Site: Type of Lesion: LIVER: HEPATOCELLULAR CARCINOMA) “active; positive”; (Species: RAT, Strain/Sex: OSBORNE-MENDEL/MALE, Route: ORAL, Dose: 8, 24 MG/KG IN DIET, TWA, Tumor Site: Type of Lesion: LIVER: HEPATOCELLULAR CARCINOMA) “active; positive”.
